Laboratory results taken from US6350477B1, “Food material containing antioxidant ingredient derived from citrus fruits” (Pokka Corporation, priority 1998, dated 2002).

Assays:
[1] = Mutagenicity test according to Rec-assay; format: cell-based
Protocol: (§1) Eriocitrin is an ingredient derived from natural products, and it is contained in a juice of citrus fruits such as lemon and lime which have been already eaten in a large amount of several tens of milligrams per 100 ml. There is no problem with a safety to humans. It is negative in the mutagenicity test according to Rec-assay or Ames assay. Thus, the safety has been identified.

[2] = Mutagenicity test according to Ames assay; format: cell-based
Protocol: as §1

Structure (SMILES): C[C@@H]1O[C@@H](OC[C@H]2O[C@@H](Oc3cc(O)c4c(c3)O[C@H](c3ccc(O)c(O)c3)CC4=O)[C@H](O)[C@@H](O)[C@@H]2O)[C@H](O)[C@H](O)[C@H]1O [Eriocitrin, eriodictyol-7-rutinoside]
- mutagenicity test according to Rec-assay [1]: negative
- mutagenicity test according to Ames assay [2]: negative
